Experimental data as given in patent US20240238423A9, “TETRAHYDROISOQUINOLINE HETEROBIFUNCTIONAL BCL-XL DEGRADERS” (Treeline Biosciences, Inc., priority 2022, published 2024).
Read-outs that look alike come from different tables or passages of the source.

Biological target: T1, Human BCL-XL protein (N-terminal HiBiT tagged BCL-XL in HT1080 cells) (Homo sapiens, UniProt Q07817)
T1 construct: expressed in transfected cells; host or cells: HT-1080 (ATCC CCL-121), stably transduced with lentivirus pLV-UBC-N-HiBiT-BCL-XL-PGK-puro and selected with puromycin
T1 sequence (Q07817 whole entry): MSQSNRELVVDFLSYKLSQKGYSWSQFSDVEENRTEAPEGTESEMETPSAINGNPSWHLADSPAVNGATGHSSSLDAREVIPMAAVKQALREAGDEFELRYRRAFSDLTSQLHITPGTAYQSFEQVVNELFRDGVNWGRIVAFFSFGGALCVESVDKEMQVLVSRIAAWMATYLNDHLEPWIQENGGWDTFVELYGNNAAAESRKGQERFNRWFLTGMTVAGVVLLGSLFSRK
Assay: HiBiT based degradation assay
Assay type: cell-based
Settings: HT1080 cells expressing HiBiT-BCL-XL; for Ymin (6 h) / Ymin (24 h): BCL-XL degradation normalized with DMSO control; for DC50: BCL-XL degradation
Outline: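 HT1080 cells stably transduced by lentivirus with N-terminally HiBiT-tagged human BCL-XL and kept under 1 μg/mL puromycin selection were seeded at three thousand cells per well in 40 μL RPMI 1640 into 384-well plates pre-spotted with compounds across a concentration range. Luminescence was read on a PHERAstar FSX, normalized to DMSO, and fitted with a four-parameter logistic model.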

SMILES	Ymin (6 h)	Ymin (24 h)	DC50 (6 h, read-out: EC50 (6 h)) [nM]	DC50 (24 h, read-out: EC50 (24 h)) [nM]
Cc1c(OCCCN2C[C@H]3CC[C@@H](C2)N3CC(=O)Nc2ccc3c(C4CCC(=O)NC4=O)nn(C)c3c2)cccc1-c1ccc(N2CCc3cccc(C(=O)Nc4nc5ccccc5s4)c3C2)nc1C(=O)O (stereo partly drawn) [Compound 127, 6-(8-(benzo[d]thiazol-2-ylcarbamoyl)-3,4-dihydroisoquinolin-2(1H)-yl)-3-(3-(3-((1R,5S)-8-(2-((3-(2,6-dioxopiperidin-3-yl)-1-methyl-1H-indazol-6-yl)amino)-2-oxoethyl)-3,8-diazabicyclo[3.2.1]octan-3-yl)propoxy)-2-methylphenyl)picolinic acid]	B (50% ≤ Ymin < 70%)	A (Ymin < 50%)	< 100	< 100
Cc1c(Oc2ccccc2CCCC(=O)Nc2cccc3c(C4CCC(=O)NC4=O)nn(C)c23)cccc1-c1ccc(N2CCc3cccc(C(=O)Nc4nc5ccccc5s4)c3C2)nc1C(=O)O (centres unmarked) [Compound 128, 6-(8-(benzo[d]thiazol-2-ylcarbamoyl)-3,4-dihydroisoquinolin-2(1H)-yl)-3-(3-(2-(4-((3-(2,6-dioxopiperidin-3-yl)-1-methyl-1H-indazol-7-yl)amino)-4-oxobutyl)phenoxy)-2-methylphenyl)picolinic acid]	C (Ymin ≥ 70%)	C (Ymin ≥ 70%)	1000 to 10000	< 100
Cc1c(Oc2ccccc2CCCC(=O)Nc2ccc3c(C4CCC(=O)NC4=O)nn(C)c3c2)cccc1-c1ccc(N2CCc3cccc(C(=O)Nc4nc5ccccc5s4)c3C2)nc1C(=O)O (centres unmarked) [Compound 129, 6-(8-(benzo[d]thiazol-2-ylcarbamoyl)-3,4-dihydroisoquinolin-2(1H)-yl)-3-(3-(2-(4-((3-(2,6-dioxopiperidin-3-yl)-1-methyl-1H-indazol-6-yl)amino)-4-oxobutyl)phenoxy)-2-methylphenyl)picolinic acid]	C (Ymin ≥ 70%)	C (Ymin ≥ 70%)	1000 to 10000	< 100
Cc1c(CCCCN2CCN(CC(=O)Nc3ccc4c(C5CCC(=O)NC5=O)nn(C)c4c3)CC2)cccc1-c1ccc(N2CCc3cccc(C(=O)Nc4nc5ccccc5s4)c3C2)nc1C(=O)O (centres unmarked) [Compound 130, 6-[8-(1,3-Benzothiazol-2-ylcarbamoyl)-3,4-dihydro-1H-isoquinolin-2-yl]-3-[3-[4-[4-[2-[[3-(2,6-dioxo-3-piperidyl)-1-methyl-indazol-6-yl]amino]-2-oxo-ethyl]piperazin-1-yl]butyl]-2-methyl-phenyl]pyridine-2-carboxylic acid]	A (Ymin < 50%)	A (Ymin < 50%)	< 100	< 100
Cc1c(OCCCN2[C@H](C)CN(CC(=O)Nc3ccc4c(C5CCC(=O)NC5=O)nn(C)c4c3)C[C@@H]2C)cccc1-c1ccc(N2CCc3cccc(C(=O)Nc4nc5ccccc5s4)c3C2)nc1C(=O)O (stereo partly drawn) [Compound 131a, 6-[8-(1,3-benzothiazol-2-ylcarbamoyl)-3,4-dihydro-1H-isoquinolin-2-yl]-3-[3-[3-[(2R,6S)-4-[2-[[3-(2,6-dioxo-3-piperidyl)-1-methyl-indazol-6-yl]amino]-2-oxo-ethyl]-2,6-dimethyl-piperazin-1-yl]propoxy]-2-methyl-phenyl]pyridine-2-carboxylic acid]	A (Ymin < 50%)	A (Ymin < 50%)	< 100	< 100
Cc1c(Oc2ccc(CCCC(=O)Nc3ccc4c(C5CCC(=O)NC5=O)nn(C)c4c3)cc2)cccc1-c1ccc(N2CCc3cccc(C(=O)Nc4nc5ccccc5s4)c3C2)nc1C(=O)O (centres unmarked) [Compound 132, 6-(8-(benzo[d]thiazol-2-ylcarbamoyl)-3,4-dihydroisoquinolin-2(1H)-yl)-3-(3-(4-(4-((3-(2,6-dioxopiperidin-3-yl)-1-methyl-1H-indazol-6-yl)amino)-4-oxobutyl)phenoxy)-2-methylphenyl)picolinic acid]	C (Ymin ≥ 70%)	B (50% ≤ Ymin < 70%)	1000 to 10000	100 to 1000
Cc1c(OCCCN2CCN(CCCOc3ccc4c(C5CCC(=O)NC5=O)nn(C)c4c3)CC2)cccc1-c1ccc(N2CCc3cccc(C(=O)Nc4nc5ccccc5s4)c3C2)nc1C(=O)O (centres unmarked) [Compound 133, 6-(8-(Benzo[d]thiazol-2-ylcarbamoyl)-3,4-dihydroisoquinolin-2(1H)-yl)-3-(3-(3-(4-(3-((3-(2,6-dioxopiperidin-3-yl)-1-methyl-1H-indazol-6-yl)oxy)propyl)piperazin-1-yl)propoxy)-2-methylphenyl)picolinic acid]	A (Ymin < 50%)	A (Ymin < 50%)	< 100	< 100
Cc1c(Oc2ccccc2CCC(=O)Nc2ccc(C3CCC(=O)NC3=O)cc2)cccc1-c1ccc(N2CCc3cccc(C(=O)Nc4nc5ccccc5s4)c3C2)nc1C(=O)O (centres unmarked) [Compound 134, 6-(8-(benzo[d]thiazol-2-ylcarbamoyl)-3,4-dihydroisoquinolin-2(1H)-yl)-3-(3-(2-(3-((4-(2,6-dioxopiperidin-3-yl)phenyl)amino)-3-oxopropyl)phenoxy)-2-methylphenyl)picolinic acid]	B (50% ≤ Ymin < 70%)	B (50% ≤ Ymin < 70%)	100 to 1000	< 100
Cc1c(-c2ccc(N3CCc4cccc(C(=O)Nc5nc6ccccc6s5)c4C3)nc2C(=O)NCC(=O)Nc2ccc3c(C4CCC(=O)NC4=O)nn(C)c3c2)cnn1Cc1ccccc1 (centres unmarked) [Compound 135, N-(1,3-benzothiazol-2-yl)-2-[5-(1-benzyl-5-methyl-pyrazol-4-yl)-6-[[2-[[3-(2,6-dioxo-3-piperidyl)-1-methyl-indazol-6-yl]amino]-2-oxo-ethyl]carbamoyl]-2-pyridyl]-3,4-dihydro-1H-isoquinoline-8-carboxamide]	B (50% ≤ Ymin < 70%)	–	< 100	–
Cc1c(OCCCN2CCN(CCOc3ccc4c(C5CCC(=O)NC5=O)nn(C)c4c3)CC2)cccc1-c1ccc(N2CCc3cccc(C(=O)Nc4nc5ccccc5s4)c3C2)nc1C(=O)O (centres unmarked) [Compound 136, 6-(8-(benzo[d]thiazol-2-ylcarbamoyl)-3,4-dihydroisoquinolin-2(1H)-yl)-3-(3-(3-(4-(2-((3-(2,6-dioxopiperidin-3-yl)-1-methyl-1H-indazol-6-yl)oxy)ethyl)piperazin-1-yl)propoxy)-2-methylphenyl)picolinic acid]	B (50% ≤ Ymin < 70%)	B (50% ≤ Ymin < 70%)	100 to 1000	< 100
Cc1c(OCCCCCCCN2CCN(c3ccc4c(C5CCC(=O)NC5=O)nn(C)c4c3)CC2)cccc1-c1ccc(N2CCc3cccc(C(=O)Nc4nc5ccccc5s4)c3C2)nc1C(=O)O (centres unmarked) [Compound 137, 6-(8-(benzo[d]thiazol-2-ylcarbamoyl)-3,4-dihydroisoquinolin-2(1H)-yl)-3-(3-((7-(4-(3-(2,6-dioxopiperidin-3-yl)-1-methyl-1H-indazol-6-yl)piperazin-1-yl)heptyl)oxy)-2-methylphenyl)picolinic acid]	B (50% ≤ Ymin < 70%)	A (Ymin < 50%)	< 100	< 100
Cc1c(O[C@H]2CC[C@H](CCC(=O)N3CCN(c4ccc5c(C6CCC(=O)NC6=O)nn(C)c5c4)CC3)CC2)cccc1-c1ccc(N2CCc3cccc(C(=O)Nc4nc5ccccc5s4)c3C2)nc1C(=O)O (some centres unmarked) [Compound 138a, 6-(8-(benzo[d]thiazol-2-ylcarbamoyl)-3,4-dihydroisoquinolin-2(1H)-yl)-3-(3-(((1r,4r)-4-(3-(4-(3-(2,6-dioxopiperidin-3-yl)-1-methyl-1H-indazol-6-yl)piperazin-1-yl)-3-oxopropyl)cyclohexyl)oxy)-2-methylphenyl)picolinic acid]	B (50% ≤ Ymin < 70%)	B (50% ≤ Ymin < 70%)	1000 to 10000	< 100
Cc1c(O[C@H]2CC[C@@H](CCC(=O)N3CCN(c4ccc5c(C6CCC(=O)NC6=O)nn(C)c5c4)CC3)CC2)cccc1-c1ccc(N2CCc3cccc(C(=O)Nc4nc5ccccc5s4)c3C2)nc1C(=O)O (some centres unmarked) [Compound 138b, 6-(8-(benzo[d]thiazol-2-ylcarbamoyl)-3,4-dihydroisoquinolin-2(1H)-yl)-3-(3-(((1s,4s)-4-(3-(4-(3-(2,6-dioxopiperidin-3-yl)-1-methyl-1H-indazol-6-yl)piperazin-1-yl)-3-oxopropyl)cyclohexyl)oxy)-2-methylphenyl)picolinic acid]	–	B (50% ≤ Ymin < 70%)	–	< 100
Cc1cc(Oc2ccc(CCC(=O)Nc3ccc4c(C5CCC(=O)NC5=O)nn(C)c4c3)cc2)ccc1-c1ccc(N2CCc3cccc(C(=O)Nc4nc5ccccc5s4)c3C2)nc1C(=O)O (centres unmarked) [Compound 139, 6-(8-(benzo[d]thiazol-2-ylcarbamoyl)-3,4-dihydroisoquinolin-2(1H)-yl)-3-(4-(4-(3-((3-(2,6-dioxopiperidin-3-yl)-1-methyl-1H-indazol-6-yl)amino)-3-oxopropyl)phenoxy)-2-methylphenyl)picolinic acid]	B (50% ≤ Ymin < 70%)	B (50% ≤ Ymin < 70%)	100 to 1000	100 to 1000
Cc1c(OCCCN2CCN(CC(=O)N3CCN(c4ccc5c(C6CCC(=O)NC6=O)nn(C)c5c4)CC3)CC2)cccc1-c1ccc(N2CCc3cccc(C(=O)Nc4nc5ccccc5s4)c3C2)nc1C(=O)O (centres unmarked) [Compound 140, 6-(8-(Benzo[d]thiazol-2-ylcarbamoyl)-3,4-dihydroisoquinolin-2(1H)-yl)-3-(3-(3-(4-(2-(4-(3-(2,6-dioxopiperidin-3-yl)-1-methyl-1H-indazol-6-yl)piperazin-1-yl)-2-oxoethyl)piperazin-1-yl)propoxy)-2-methylphenyl)picolinic acid]	A (Ymin < 50%)	A (Ymin < 50%)	< 100	< 100
